Assay: Solubility of ibuprofen salts in saturated solutions at room temperature (HPLC, UV detection)
Source text: Zur Bestimmung der Löslichkeit der Ibuprofen-Salze werden bei Raumtemperatur gesättigte Lösungen hergestellt. Ein aliguoter Teil dieser Lösungen wird mit einem mit der Lösung mischbaren Lösungsmittel verdünnt und der Gehalt an Ibuprofen mittels HPLC über eine Reversed-Phase-Säule und UV-Detektion bestimmt.

[1] = 1,2-Propandiol/Glycerin/Wasser (2/4/3;v/v/v)
[2] = 1,2-Propandiol/Polyethylenglykol 400/Wasser (5/3/6;v/v/v)
[3] = Cabrylic/Capric Triglyceride (Miglyol 810)
[4] = Caprylic/Capric Triglyceride (Miglyol 812)
[5] = Ethanol/1,2-Propandiol/Wasser (1/4/4;v/v/v)
[6] = Polyoxyethylen-(7)-glycerin-kokosnußöfettsäure-ester
[7] = Polyoxyethylierte Olein-Glyceride (Labrafil M 1944 CS)

Row | Substance | Löslichkeit von Ibuprofen-Salzen bei Raumtemperatur (1,2-Propandiol) | Löslichkeit von Ibuprofen-Salzen bei Raumtemperatur [1] | Löslichkeit von Ibuprofen-Salzen bei Raumtemperatur [2] | Löslichkeit von Ibuprofen-Salzen bei Raumtemperatur [3] | Löslichkeit von Ibuprofen-Salzen bei Raumtemperatur [4] | Löslichkeit von Ibuprofen-Salzen bei Raumtemperatur (Ethanol) [mg Ibuprofen/ml] | Löslichkeit von Ibuprofen-Salzen bei Raumtemperatur [5] | Löslichkeit von Ibuprofen-Salzen bei Raumtemperatur (Glycerin) | Löslichkeit von Ibuprofen-Salzen bei Raumtemperatur (Glycerinmonoricinoleat) | Löslichkeit von Ibuprofen-Salzen bei Raumtemperatur (Isopropylmyristat) [mg Ibuprofen/ml] | Löslichkeit von Ibuprofen-Salzen bei Raumtemperatur (Paraffinum supl.) | Löslichkeit von Ibuprofen-Salzen bei Raumtemperatur (Polyethylenglykol 400) [mg Ibuprofen/ml] | Löslichkeit von Ibuprofen-Salzen bei Raumtemperatur [6] [mg Ibuprofen/ml] | Löslichkeit von Ibuprofen-Salzen bei Raumtemperatur [7] [mg Ibuprofen/ml] | Löslichkeit von Ibuprofen-Salzen bei Raumtemperatur (Wasser)
1 | Aluminiumdiibuprofen (1 : 2) [Ibuprofen-Al (2 : 1)] | 0,8 mg Ibuprofen/ml | < 0,1 mg Ibuprofen/ml | < 0,1 mg Ibuprofen/ml | 0,5 mg Ibuprofen/ml | 0,3 mg Ibuprofen/ml | 2 | < 0,1 mg Ibuprofen/ml | < 0,1 mg Ibuprofen/ml | 4,5 mg Ibuprofen/ml | 1 | < 0,1 mg Ibuprofen/ml | 2 | 6 | 4 | < 0,1 mg Ibuprofen/ml
2 | Ibuprofen-Magnesiumsalz [Ibuprofen-Mg] | 160 mg Ibuprofen/ml | 250 mg Ibuprofen/ml | 125 mg Ibuprofen/ml | 35 mg Ibuprofen/ml | 17 mg Ibuprofen/ml | 500 | 330 mg Ibuprofen/ml | 8 mg Ibuprofen/ml | 450 mg Ibuprofen/ml | 260 | 0,4 mg Ibuprofen/ml | 40 | 480 | 380 | 7 mg Ibuprofen/ml
